# Measurements published in publication PMC5930436, “Overexpressed HDAC8 in cervical cancer cells shows functional redundancy of tubulin deacetylation with HDAC6” (Cell Communication and Signaling : CCS, 2018).
# Entries after “also recorded” stand apart in the source; their conditions may differ.
# What was measured:
# GST-HDAC8 [1] = assay: Circular dichroism binding study with GST-HDAC8; parameters: species or system human; details: GST-HDAC8 (2 μM) + peptide (500 nM), 25 °C, 190-300 nm
# Description: (§1) hHDAC8 (Full length) cDNA was amplified by using a polymerase chain reaction (PCR) with forward primer: 5′– […]-3′ and a reverse primer: 5’–[…]–3′. The PCR product was then sub cloned into pGEX- 6P1 plasmid. Clone was then overexpressed in Escherichia coli strain BL21 (DE3) with standardized expression conditions of 0.1 mM IPTG at 28 °C for 4 h. Induced culture pellet was lysed in 1XPBS buffer (140 mM NaCl, 2.7 mM KCl, 10 mM Na2HPO4, 1.8 mM KH2PO4) along with 1X Protease inhibitor cocktail, 1 mM PMSF, and 0.1 mM DTT. To the lysate 1% Triton X 100 is added and centrifuged for 20 min at a speed of 4000 rpm at 4 °C. Clear supernatant was used for binding with GST binding buffer (25 mM Tris pH 7.5, 300 mM NaCl, 1 mM EDTA, 1X Protease inhibitor cocktail) for 3 h on a rota spin at 4 °C. Binding was followed by collection of unbound and washes with 1X PBS (5 washes). Elutions were collected in 10 mM reduced glutathione, dissolved in 50 mM Tris pH 8.0. The purity of the protein was then analysed on SDS PAGE, followed by Western blot. Activity was then determined by HDAC activity assay.
# Binding studies of GST-HDAC8 protein (2 μM) and acetylated (Lys40) or unacetylated alpha tubulin peptides (500 nM) were carried out on Jasco J-1500 (model L-1500-450) CD spectroscopy. Changes incurred in the secondary structure of GST-HDAC8 upon binding of the peptides were recorded as the mean ellipticity, with given set of parameters: start wavelength of 300 nm, end wavelength of 190 nm, scan speed of 100 nm/min, band width of 2 nm, cuvette cell size of 2 mm and at a temperature of 25 °C with two scan accumulations.
# [2] = system: acetylated alpha tubulin, HeLa; assay: Immunoblot of acetylated alpha tubulin in HeLa cells; type: cell-based, human; details: 24 h
# Description: (§2) Human embryonic kidney cells, HEK293T, human cervical carcinoma cells, HeLa, human breast cancer cells, MDA-MB 231, human lung adenocarcinoma cellsA549, chronic myeloid leukemia cells, K562, and human colon cancer cells, HCT11, were obtained from National Centre for Cell Sciences (NCCS), Pune, India. Cell line authentication by STR analysis was performed for 10 genetic loci for all the cell lines by Life code, Genomic technologies Pvt. Ltd., and tested for mycoplasma negative by performing PCR (mycoplasma specific genes) using EZdetect PCR kit for mycoplasma detection (CCK009). All the cells were cultured in high glucose DMEM medium containing 10% foetal bovine serum and 1% Penicillin/streptomycin (Himedia). Cells were seeded in 60 mm dishes and upon attaining 80–90% confluency, treatment was given with PCI-34051(Cayman Chemicals) (10 μM/20 μM) and tubastatin (5 μM) for 24 h or both in combination (PCI-34051 and Tubastatin) and Forskolin (Sigma) (10 μM) for 45 min independently along with untreated control as described earlier.
# (§3) Total, cytoplasmic and nuclear fractions of HeLa or HEK 293 T cells treated with or without PCI-34051 (20 μM), [12] tubastatin (5 μM) and/or forskolin (10 μM) were prepared as described previously. Total protein samples of HEK 293 T, HeLa, MDAMB 231, K562, A549 and HCT11 cells / immunoprecipitated HDAC8 and HDAC6 samples from both HeLa and HEK 293 T lysates / HDAC8 siRNA transfected HEK 293 T and HeLa lysates were also prepared. The proteins were separated on 10 or 12% SDS-PAGE, transferred on to nitrocellulose membrane and probed with primary antibodies of HDAC8, Beta actin, Alpha tubulin, anti-acetylated alpha tubulin, HDAC6 and GAPDH. The bands were visualized using chemiluminiscence after probing with HRP-conjugated secondary antibody.
# (§4) Source for siRNA oligonucleotides were considered from with sequence, HDAC8 Sense: […] and Anti-sense: […]. The oligonucleotides were converted into siRNA by following standard protocol as described earlier. HeLa and HEK 293 T cells were transfected with HDAC8 siRNA (10–15 μg/100 mm dish) using lipofectamine 2000 (Invitrogen), and considering untransfected as control. Cells were harvested after 72 h of post-transfection and processed for total RNA and protein isolation.
# [3] = system: acetylated alpha tubulin, HEK 293 T; assay: Immunoblot of acetylated alpha tubulin in HEK 293 T cells; type: cell-based, human; details: 24 h; for acetylated alpha tubulin levels: HEK 293 T
# Description: as §2, §3, §4
# HeLa cells [4] = assay: Cell migration (wound) assay in HeLa cells; type: cell-based, human
# Description: HeLa cells are grown in 6 well plates in duplicates till it attains 90% confluency and starved with serum free media for overnight. Using a sterile 200 μl tip wound is created by drawing straight lines at three different points in each well. Detached cells are aspirated and washed three times with 1XPBS. Cells are treated with PCI-34051 (10 μM & 20 μM) and Paclitaxel (10 μM & 20 μM) dissolved in 2% FBS respectively along with control (untreated). Migrated cells into the wound were examined by capturing images using Olympus CKX41, ProgRes CT3 phase contrast microscope after 24 and 48 h.
# HeLa cells [5] = assay: Cell morphology analysis, HeLa; type: cell-based, human; details: 20 μM
# Description: (§5) HeLa and HEK 293 T cells are cultured in 6 well plates till attaining 70% confluency. Cells are starved for 12 h without serum and treated with PCI-34051 (20 μM) and Paclitaxel (20 μM) along with untreated control for 24 & 48 h. Examined difference in the morphology was captured by Olympus CKX41, ProgRes CT3 phase contrast microscope at 10X focussed lens.
# HEK 293 T cells [6] = assay: Cell morphology analysis, HEK 293 T; type: cell-based, human; details: 20 μM, 24 & 48 h, vs control
# Description: as §5
# HeLa cells [7] = assay: Cell cycle analysis, HeLa; type: cell-based, human; details: PCI-34051 (20 μM), 48 h, vs untreated control
# Description: (§6) Cells (HeLa & HEK 293 T) were grown to attain 70% confluency and were serum starved for 12 h, followed by treatments with PCI-34051 (20 μM) and Paclitaxel (20 μM) respectively for 48 h and processed for cell cycle analysis.
# HEK 293 T cells [8] = assay: Cell cycle analysis, HEK 293 T; type: cell-based, human; details: PCI-34051 (20 μM), 48 h
# Description: as §6
# HDAC8 = details: cited from earlier work
# From the text: The cytoplasmic localization of HDAC8 was further confirmed by immunoblot analysis using total, cytoplasmic and nuclear protein fractions of HEK 293 T and HeLa (Fig. 1d). […] With forskolin treatment, there was significant inc ... || In silico and spectroscopy based results have confirmed the interaction of HDAC8 with alpha tubulin & acetylated alpha tubulin peptide. To further validate the functional interaction we carried out IP and co-IP experiments with HDAC8 and acetylated alpha tubulin (ac-tubulin) antibodies. […] Densitometry results for the fold expression ...
# GST-HDAC8 [9] = assay: HPLC-based in vitro deacetylation assay with GST-HDAC8; type: biochemical, human; details: GST-HDAC8 (2 μM; 30 μg) + peptide (500 nM), 15 min, 37 °C, 50 mM Tris pH 7.5, 1 mM DTT, HPLC C18
# Description: as §1
# In vitro deacetylation assay of custom synthesized acetylated (Lys40) alpha tubulin was carried out on HPLC (Schimadzu) with C18 (4.6 × 250 mm) column as described earlier. […]
compound,measurement,setting,value
"DGQMPSDKTIGGGD [Unac-alpha tubulin peptide, Custom synthesized, Unacetylated Alpha tubulin peptide …]",change in secondary structure of GST-HDAC8 (CD),GST-HDAC8 [1]; listed as unacetylated form,without any notable differences
same,change in secondary structure of GST-HDAC8 (CD),GST-HDAC8 [1]; listed as unacetylated tubulin,not observed
COc1ccc(Cn2ccc3ccc(C(=O)NO)cc32)cc1 [PCI-34051],"acetylated alpha tubulin levels, compared to tubastatin treated condition",[2]; PCI-34051 (20 μM) vs tubastatin,Increased ac-alpha tubulin levels
same,acetylated alpha tubulin levels,[2]; PCI-34051 (20 μM),ac-alpha tubulin levels increase; also recorded: increased acetylated alpha tubulin levels; also recorded: increased the acetylation of alpha tubulin in HeLa
same,acetylated alpha tubulin levels,[3]; PCI-34051 (20 μM),no significant increase
same,migration efficiency,"HeLa cells [4]; PCI-34051 (10 μM & 20 μM), upto 48 h",significantly decreased
same,migration efficiency (rank order),"HeLa cells [4]; PCI-34051 (10 μM) or Paclitaxel (10 μM), 24 and 48 h",Control> > Paclitaxel>PCI-34051
same,cell size during migration assay,"HeLa cells [4]; PCI-34051, upto 48 h",notable decrease in cell size
same,cell morphology effect compared with positive control,HeLa cells [5]; HeLa (shrinkage) and HEK 293 T (clump formation),quite comparable to that of paclitaxel treated condition
same,cell morphology (cell size),"HeLa cells [5]; HeLa, 24 & 48 h, vs control",reduced (shrinking) cell size; also recorded: decreased cell size (shrinking)
same,cell morphology (aggregation / clump formation),HEK 293 T cells [6],clump formation; also recorded: cell aggregation
same,mitotic phase of cell cycle,HeLa cells [7],significant (p < 0.05) reduction in mitotic phase
same,sub G0/G1 peak,HeLa cells [7],increased sub G0/G1 peak
same,mitotic phase of cell cycle,HEK 293 T cells [8],did not show any mitotic phase reduction; also recorded: no major significant change in the mitotic phase
same,sub G0/G1 phase,HEK 293 T cells [8],significant increase in the sub G0/G1 phase
same,HDAC8 selectivity,HDAC8,HDAC8 selective inhibitor
"DGQMPSDKTIGGGD [ac-alpha tubulin peptide, Custom synthesized peptides of alpha tubulin 33–46 amino acids, Acetylated alpha tubulin peptide, at Lys40 …]",change in secondary structure of GST-HDAC8 (CD),GST-HDAC8 [1],significant change in the secondary structure of GST-HDAC8
same,change in secondary structure of GST-HDAC8 (CD),GST-HDAC8 [1]; listed as acetylated alpha tubulin,change in the secondary structure of GST-HDAC8; also recorded: significant change in the secondary structure
same,in vitro deacetylation by GST-HDAC8 (shift to retention time of unacetylated peptide),GST-HDAC8 [9],clearly demonstrates the in vitro deacetylation of ac-alpha tubulin by GST-HDAC8
same,in vitro deacetylation by GST-HDAC8 (shift to retention time of unacetylated peptide),GST-HDAC8 [9]; listed as acetylated alpha tubulin (Lys40) peptide,significant peak shift in the retention time corresponding to unacetylated peptide
CN1CCc2c(c3ccccc3n2Cc2ccc(C(=O)NO)cc2)C1 [Tubastatin],"acetylated alpha tubulin levels, compared to PCI-34051 (20 μM) treated condition","[3]; HEK 293T, tubastatin (5 μM) vs PCI-34051 (20 μM)",increases ac-alpha tubulin levels
same,acetylated alpha tubulin levels,"[3]; tubastatin (5 μM), HDAC6 inhibition",increase in ac-alpha tubulin levels
